Experimental data reported in PubChem BioAssay (NCI).
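Method: 48-hour compound exposure of cells in 96-well plates, five concentrations, linear interpolation of endpoints. GI50 marks 50% less growth. TGI is the concentration that stops growth completely.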

Legend:
Assay in all cases: NCI tumour cell line growth inhibition, 48 h
[1] = tested on: HCT-116 colon
[2] = tested on: OVCAR-4 ovarian
[3] = tested on: SK-OV-3 ovarian
[4] = tested on: LOX IMVI melanoma
[5] = tested on: COLO 205 colon
[6] = tested on: HOP-92 NSCLC
[7] = tested on: SW-620 colon
[8] = tested on: SF-295 CNS
[9] = tested on: NCI/ADR-RES ovarian
[10] = tested on: T-47D breast

SMILES | GI50 [1] [µM] | TGI [1] [µM] | GI50 [2] [µM] | TGI [2] [µM] | GI50 [3] [µM] | TGI [3] [µM] | GI50 [4] [µM] | TGI [4] [µM] | GI50 [5] [µM] | TGI [5] [µM] | GI50 [6] [µM] | TGI [6] [µM] | GI50 [7] [µM] | TGI [7] [µM] | TGI [8] [µM] | GI50 [8] [µM] | GI50 [9] [µM] | TGI [9] [µM] | GI50 [10] [µM] | TGI [10] [µM]
O=C([CH-]C(=O)c1ccccc1)c1ccccc1.O=C([CH-]C(=O)c1ccccc1)c1ccccc1.[La+3].[OH-].[OH3+] | 7.89 | 29.6 | 26.1 | > 100 | 21.3 | 69.8 | 13.5 | 37.1 | 22.6 | 61.5 | 15.3 | 38.9 | 9.82 | > 100 |  |  |  |  |  | 
CC(C)C1CC[C@@H](C)C[C@@]1(O)CC(N)=O (stereo partly drawn) |  | > 100 |  | > 100 |  | > 100 |  |  |  | > 100 |  |  |  | > 100 | > 100 |  |  |  |  | 
Cc1ccc(S(=O)(=O)OC2CSS(=O)CC2OS(=O)(=O)c2ccc(C)cc2)cc1 (stereo not drawn) |  | 27.1 |  | 32.6 |  | 38.5 |  | 26.1 |  | 24.1 |  | 25.9 |  | 18.9 | 29.2 |  |  |  |  | 
Oc1c(C(Nc2cccc3cccnc23)c2ccccc2)ccc2cccnc12 (stereo not drawn) |  | > 100 |  | > 100 |  |  |  | > 100 |  | > 100 |  |  |  | > 100 | > 100 |  |  |  |  | 
COC(=O)/C(C)=C(/CCC1(C)OCCO1)O[Si](C)(C)C |  | > 100 |  | > 100 |  | > 100 |  | > 100 |  | > 100 |  | > 100 |  | > 100 | > 100 |  |  |  |  | 
COc1ccc(-c2c[nH]c(C(=O)O)c2-c2cc(OC)c(OC)c(OC)c2)cc1 | 5.02 | > 100 | 88.8 | > 100 | 5.82 | > 100 | 6.69 | > 100 | 3.31 | 17 | 5.68 | > 100 | 3.94 | > 100 | > 100 | 4.19 | 3.8 | > 100 |  | 
CCOc1ccccc1N1C(=O)C(=O)C(c2nc3ccccc3o2)C(=O)C1=O |  | > 100 |  | 45.7 |  | > 100 |  | > 100 |  | > 100 |  | > 100 |  | > 100 | > 100 |  |  |  |  | 
CC(C)(C)c1ccc(Oc2nccc(-c3c(-c4ccc(F)cc4)ncn3C3CCNCC3)n2)cc1 | 3.58 | 7.07 | 3.61 | 7.32 | 4.35 | 7.8 | 3.43 | 7.49 | 3.69 | 7.46 |  |  | 3.96 | 7.82 | 8.68 | 4.65 | 3.39 | 7 | 4.46 | 8.56
O=C(O)C(SC(=S)c1ccc(C(=S)SC(C(=O)O)c2ccccc2)cc1)c1ccccc1 (stereo not drawn) |  | > 100 |  |  |  | > 100 |  | > 100 |  |  |  | > 100 |  | > 100 | > 100 |  |  |  |  | 
Cc1cc(=O)n(-c2ccccc2C)c(C)n1 |  | > 100 |  | > 100 |  | > 100 |  | > 100 |  | > 100 |  | > 100 |  | > 100 | > 100 |  |  |  |  | 
CCCCOC(=O)C1C2CCC(O2)C1C(=O)OCCCC (stereo not drawn) |  | > 65.1 |  | > 100 |  | > 100 |  | > 60.7 |  | > 57.3 |  | > 100 |  | > 22.9 | > 100 |  |  |  |  | 
CCS(CC)(CC)CC1CCCC2=CCC(P(=O)(c3ccccc3)c3ccccc3)CC21 (stereo not drawn) |  | 20.7 |  | 26 |  | 28.7 |  | 34.9 |  | 37.4 |  | 16.4 |  | 31.5 | 16.3 |  |  |  |  | 
CCOc1ccc2c(c1)[n+]([O-])c(-c1ccc(Cl)cc1)c(N)[n+]2[O-] |  | > 100 |  | > 100 |  | > 100 |  |  |  | > 100 |  | > 100 |  | > 100 | > 100 |  |  |  |  | 
C=C1C(=O)O[C@H]2[C@H]1CC/C(COC(=O)NCc1cn(C)c3ccccc13)=C\CC[C@@]1(C)O[C@@H]21 | 0.288 | 1.07 | 2.38 | 7.92 |  |  | 0.594 | 1.99 |  |  | 1.46 | 3.05 | 0.524 | 1.98 | 13.9 | 3.27 | 2.37 | 12.3 |  | 
COc1ccc(Br)c(N/N=C2\CCCNC2=O)c1 |  | > 100 |  | > 100 |  | > 100 |  | > 100 |  | > 100 |  | > 100 |  | > 100 | > 100 |  |  |  |  | 
Cc1cccc(C)c1NC(=O)C(C#N)C1=C(Cl)C(=O)c2ccccc2C1=O (stereo not drawn) |  | 30.6 |  | 30.3 |  | 43.3 |  | 43.8 |  | 10.2 |  | 22.4 |  | 34.3 | 32.5 |  |  |  |  | 
